Data reported in ChEMBL document CHEMBL1128829, “Synthesis and pharmacological activities of a novel tripeptide mimetic dopamine prodrug” (Bioorg Med Chem Lett, 1995).
Where a SMILES comes first, the peptide text is derived from it.

Experiments:
[1] = Net water uptake by a carrier mediated transport (%cm) mechanism; assay type: ADME; settings: buffer
Rattus norvegicus [2] = assay: Reduction of (+)-methamphetamine-induced rotational counts on unilateral-lesion rats at a dose of 9.60 mg/Kg after 1 h; assay type: functional
Rattus norvegicus [3] = assay: Reduction of (+)-methamphetamine-induced rotational counts on unilateral-lesion rats at a dose of 9.60 mg/Kg after 2 h; assay type: functional
Rattus norvegicus [4] = organism: Rattus norvegicus; assay: Percent recovery after 90 min of incubation in a rat intestinal mucosa suspension at 37 degree Centigrade; assay type: functional, organism-based
Rattus norvegicus [5] = organism: Rattus norvegicus; assay: Dimensionless membrane permeability (Pm) from in situ single-pass rat jejunal perfusion at a concentration of 0.1 mM; assay type: functional, organism-based
Rattus norvegicus [6] = organism: Rattus norvegicus; assay: Percent recovery after 2 min of incubation in a rat intestinal mucosa suspension at 37 degree Centigrade; assay type: functional, organism-based
[7] = Percent of oral bioavailability up to 1000 mg/day; assay type: ADME, organism-based; settings: eutheria, in vivo
Rattus norvegicus [8] = assay: Reduction of (+)-methamphetamine-induced rotational counts on unilateral-lesion rats at a dose of 4.20 mg/Kg after 1 h; assay type: functional

Activity [1] [%]	bioavailability [7] [%]	SMILES	Counts of rotation (Rattus norvegicus [2]) [turns hr-1]	Counts of rotation (Rattus norvegicus [3]) [turns hr-1]	Recovery (Rattus norvegicus [4]) [%]	Permeability (Rattus norvegicus [5])	Recovery (Rattus norvegicus [6]) [%]	Counts of rotation (Rattus norvegicus [8]) [turns hr-1]
1.64	–	N[C@@H](C(=O)N1CCC[C@H]1C(=O)N[C@H](Cc1ccc(O)c(O)c1)C(=O)O)c1ccc(O)cc1	223	247	95	1.53	–	–
–	–	NCC(=O)N[C@@H](Cc1ccccc1)C(=O)O (H-Gly-Phe-OH)	–	–	–	–	19	–
0.03	33	N[C@@H](Cc1ccc(O)c(O)c1)C(=O)O [LEVODOPA]	–	–	–	5.38	–	287
